One may read the IC50 as the midpoint of a concentration-inhibition curve.

In test [1] the test system is Human mammary cancer MCF-7 cell. In words: Human mammary cancer MCF-7 cell growth inhibition test (neutral red). In kind it is cell-based. The conditions noted are these: MCF7, MCF-7 cells, 72 hours, medium with 10^-8M estradiol, neutral red absorbance at 550 nm. The method, then: Human mammary cancer MCF-7 cell growth inhibition test
Each 0.1 ml of MCF-7 cells which had been prepared in a concentration of 5 x 10^4/ml using a medium prepared by adding 10% bovine fetal serum, 10^-8M estradiol (manufactured by Sigma), 100 units/ml penicillin and 100 µg/ml streptomycin to RPMI1640 medium (referred to as Medium B hereinafter) was distributed in each well of 96 well-microtiter plate. […] The supernatant was removed, each 0.1 ml of Medium B containing 0.02% neutral red was added to the residue, the mixture was allowed to stand at 37 °C for 1 hour in a CO2 gas incubator and the cells were stained by neutral red dye. The supernatant was removed and the residue was washed once with a physiological saline. Then, the dye was extracted with 0.001 N hydrochloric acid/30% ethanol and the absorbance at 550 nm was determined with a microplatereader.

Test [2] deals with Mature female BALB/c mice. Put plainly: Effect on uterus weight of mature mouse (anti-estrogenic activity). The conditions noted are these: dose 25 mg/kg, orally, repeatedly for 4 days; uteri isolated after 5 days; not treated group 106 mg. In kind it is in vivo. The method, then: The effect against the decrease in uterus weight of mature mouse
Mature female BALB/c mice, 9 weeks age, were divided into two groups (6 animals per group). The test compounds were repeatedly administered orally to one group for 4 days. After 5 days, the uteri were isolated and the weight thereof was measured.

The test system of test [3] is estrogen-dependent human mammary cancer MCF-7. In words: Antitumor effects against estrogen-dependent human mammary cancer MCF-7 transplanted in nude mice. In kind it is in vivo, female BALB/c-nu/nu mouse. The conditions noted are these: Mus musculus, MCF7, po; dose 25 mg/kg orally, 5 days per week for two weeks; ratio of V/V0 of treated group to control group; judgement date day 14 to 25, differs per compound; read-out: T/C. The source says: Antitumor effects against estrogen-dependent human mammary cancer MCF-7
The tumor fragment (2 mm x 2 mm x 2mm) of human hormone dependent mammary cancer MCF-7 was transplanted subcutaneously in the flank of female BALB/c-nu/nu mouse (Nihon Crea), 7 to 9 weeks age. […] Mice having the tumor volume 25 to 200 mm^3 were selected 3 to 4 weeks after transplantation, and the test compounds were orally administered repeatedly to the groups (5 animals per group) for 5 days per a week, for total two weeks. In addition, estradiol propionate was administered again on the date of initial administration of the test compounds. Length and width of the tumor were determined every day, and the tumor volumes were calculated by means of ellipsoid approximation according to the following equation: […] [formula]
The tumor volume at initial administration (V0) and on the day of judgement (V) was calculated, and the tumor growth rate (V/V0) was calculated. T/C value was obtained as the ratio of V/V0 value of treated group relative to that of control group.

In test [1], `CCN(CC)C(=O)OCc1c(F)c(N)c2c(=O)cc(-c3ccc(N)c(F)c3)oc2c1F` [Compound 1, 5-Amino-2-(4-amino-3-fluorophenyl)-7-diethylcarbamoyloxymethyl-6,8-difluoro-4H-1-benzopyran-4-one] had an IC50 of 0.35 µM. That is a sub-micromolar value. On the same count and under the same terms, then `CN1CCN(C(=O)OCc2c(F)c(N)c3c(=O)cc(-c4ccc(N)c(F)c4)oc3c2F)CC1` [Compound 2, 5-Amino-2-(4-amino-3-fluorophenyl)-6,8-difluoro-7-(4-methylpiperazinyl)carbonyloxymethyl-4H-1-benzopyran-4-one], with 0.23 µM. As for `CN(C)CC(=O)OCc1c(F)c(N)c2c(=O)cc(-c3ccc(N)c(F)c3)oc2c1F` [Compound 6, 5-Amino-2-(4-amino-3-fluorophenyl) -7-dimethylaminoacetoxymethyl-6,8-difluoro-4H-1-benzopyran-4-one], the IC50 in test [1] worked out at 0.026 µM. In addition, in test [2], the weight of uterus was 67 mg. Moreover, the response vs control in vivo at 25 mg/kg in test [3] turned out to be 1.2%.

`CN(C)CCC(=O)OCc1c(F)c(N)c2c(=O)cc(-c3ccc(N)c(F)c3)oc2c1F` [Compound 7, 5-Amino-2-(4-amino-3-fluorophenyl)-7-(3-dimethylaminopropionyl) oxymethyl-6,8-difluoro-4H-1-benzopyran-4-one]: 0.019 µM corresponded to half-maximal inhibition in test [1] (IC50). In test [3], the response vs control in vivo at 25 mg/kg was 4.1%. For `CN(C)CCCC(=O)OCc1c(F)c(N)c2c(=O)cc(-c3ccc(N)c(F)c3)oc2c1F` [Compound 8, 5-A-mino-2-(4-amino-3-fluorophenyl)-7-(4-dimethylaminobutyryl)oxymethyl-6,8-difluoro-4H-1-benzopyran-4-one] the same measures were 0.029 µM and 15%. In test [1], `Nc1ccc(-c2cc(=O)c3c(N)c(F)c(COC(=O)CN4CCCCC4)c(F)c3o2)cc1F` [Compound 9, 5-Amino-2-(4-amino-3-fluorophenyl)-6,8-difluoro-7-piperidinoacetoxymethyl-4H-1-benzopyran-4-one] had an IC50 of 0.033 µM. For the same molecule, in test [3], the response vs control in vivo at 25 mg/kg stood at 4.2%. `CN1CCN(CC(=O)OCc2c(F)c(N)c3c(=O)cc(-c4ccc(N)c(F)c4)oc3c2F)CC1` [Compound 10, 5-Amino-2-(4-amino-3-fluorophenyl)-6,8-difluoro-7-(4-methylpiperazinyl)acetoxymethyl-4H-1-benzopyran-4-one]: the IC50 in test [1] came out at 0.087 µM. Also, the response vs control in vivo at 25 mg/kg in test [3] was 7%.

As for `Nc1ccc(-c2cc(=O)c3c(N)c(F)c(COC(=O)CN4CCOCC4)c(F)c3o2)cc1F` [Compound 11, 5-Amino-2-(4-amino-3-fluorophenyl)-6,8-difluoro-7-morpholinoacetoxymethyl-4H-1-benzopyran-4-one], the IC50 in test [1] came to 0.017 µM. In addition, in test [3], the response vs control in vivo at 25 mg/kg came to 4.4%. `Nc1ccc(-c2cc(=O)c3c(N)c(F)c(COC(=O)CN4CCC(O)CC4)c(F)c3o2)cc1F` [Compound 12, 5-Amino-2-(4-amino-3-fluorophenyl) -6,8-difluoro-7-(4-hydroxypiperidino)acetoxymethyl-4H-1-benzopyran-4-one] yielded an IC50 in test [1] of 0.018 µM. In addition, the response vs control in vivo at 25 mg/kg in test [3] is 3.5%. `CN(C)CCN(C)CC(=O)OCc1c(F)c(N)c2c(=O)cc(-c3ccc(N)c(F)c3)oc2c1F` [Compound 13, 5-Amino-2-(4-amino-3-fluorophenyl)-7-[N-(2-dimethylaminoethyl)-N-methylamino)acetoxymethyl-6,8-difluoro-4H-1-benzopyran-4-one]: the response vs control in vivo at 25 mg/kg in test [3] is 2.2%.

Take `COC(=O)CNCC(=O)OCc1c(F)c(N)c2c(=O)cc(-c3ccc(N)c(F)c3)oc2c1F` [Compound 14, 5-Amino-2-(4-amino-3-fluorophenyl)-6,8-difluoro-7-methoxycarbonylmethylaminoacetoxymethyl-4H-1-benzopyran-4-one]: the 50% inhibitory concentration (IC50) in test [1] was 0.013 µM. In addition, the response vs control in vivo at 25 mg/kg in test [3] turned out to be 1.3%. `C=CCOC(=O)OCc1c(F)c(N)c2c(=O)cc(-c3ccc(N)c(F)c3)oc2c1F` [Compound 15, 7-Allyloxycarbonyloxymethyl-5-amino-2-(4-amino-3-fluorophenyl)-6,8-difluoro-4H-1-benzopyran-4-one]: half-maximal inhibition in test [1] (IC50) required 0.081 µM.
